Laboratory results taken from EP2416773B1, “CHECKPOINT KINASE 1 INHIBITORS FOR POTENTIATING DNA DAMAGING AGENTS” (Array Biopharma, Inc., priority 2009, dated 2010).
Where two headings read alike, the source gives them in different places.

Experiments:
phospho-cdc2 = experiment: Inhibition of CPT11 induced phosphorylation of cdc2 in HT-29 tumors, immunoblot (Example 7); assay type: in vivo, nude mice; conditions: extended dosing: 5, 10 or 25 mg/kg PO BID 3 consecutive days from 24 hours after CPT11 100 mg/kg IP; tumors harvested 96 hours post CPT11
Experimental: Female nude mice were inoculated subcutaneously with 5 X 10^6 HT-29 tumor cells in IX PBS (100 µL). Twenty nine days later, mice were randomized into groups of 3 with an average tumor volume in each group of approximately 500 mm^3. […] Compound 5 was given as a single dose at 25 mg/kg, or alternatively 5, 10, or 25 mg/kg doses were given for 3 consecutive days on BID schedules. […] Phosphorylation of cdc2 was assessed by immunoblot and normalized to total ERK expression. Results are expressed as POC.

[1] = test system: subcutaneous HT-29 xenografts; experiment: Tumor growth inhibition experiment, CPT11 and Compound 5 (Example 12); assay type: in vivo; conditions: for Growth Delay / Maximum % Body Weight Loss: single agent, CPT11 100 mg/kg IP Q10Dx2, Compound 5 PO BID 3 days, dose not given
Experimental: Female nude mice were inoculated subcutaneously with 4 X 10^6 HT-29 tumor cells in 1X PBS (100 µL). Twelve days later, mice were randomized into groups of 7 with an average tumor volume in each group of approximately 200 mm^3. […] Tumor size and animal body weight were measured over the course of the study on the days indicated with data points in Figure 13. Tumor volume was calculated using the formula: volume = (width^2 x length)/2. No mortalities occurred over the course of this study.

[2] = test system: subcutaneous HT-29 xenografts; assay type: in vivo; conditions: for Growth Delay: gemcitabine 120 mg/kg IP Q7Dx3
Experimental: Female nude mice were inoculated subcutaneously with 5 X 10^6 HT-29 tumor cells in IX PBS (100 µL). Fourteen days later, mice were randomized into groups of 7 with an average tumor volume in each group of approximately 200 mm^3. Sorted animals were administered gemcitabine (120 mg/kg; IP) on a Q7Dx3 cycles schedule. Compound 5 (5, 10 or 25mg/kg; PO. BID) administration was initiated 24 hours post gemcitabine and endured for 3 days as indicated. Tumor size and animal body weight were measured over the course of the study on the days indicated with data points in Figure 10. Tumor volume was calculated using the formula: volume = (width^2 X length)/2. No mortalities occurred over the course of this study.

[3] = test system: MiaPaCa2 pancreatic carcinoma xenografts; assay type: in vivo; conditions: for % Tumor Growth Inhibition / Growth Delay: single agent, gemcitabine 120 mg/kg IP Q7Dx3, Compound 5 given as 10 mg/kg in table
Experimental: female nude mice were inoculated subcutaneously with 7 X 10^6 MiaPaCa2 tumor cells in a 1:1 1X PBS and matrigel suspension (100 µL). Fifteen days later, mice were randomized into groups of 7 with an average tumor volume in each group of approximately 315 mm^3. Sorted animals were administered gemcitabine (120 mg/kg; IP) on a Q7Dx3 cycles schedule. […] Tumor size and animals body weight were measured over the course of the study on the days indicated with data points in Figure 11. Tumor volume was calculated using the formula: volume = (width^2 X length)/2. No mortalities occurred over the course of this study.

[4] = test system: subcutaneous HT-29 xenografts; assay type: in vivo; conditions: single agent; gemcitabine 140 mg/kg IP Q7Dx2; Compound 2 PO BID 3 days, dose not given
Experimental: Female nude mice were inoculated subcutaneously with 5 X 10^6 HT-29 tumor cells in IX PBS (100 µL). Fourteen days later, mice were randomized into groups of 8 with an average tumor volume in each group of approximately 260 mm^3. Sorted animals were administered gemcitabine (140 mg/kg; IP) on a Q7Dx2 cycles schedule. Compound 2 (10 or 25mg/kg: PO, BID) administration was initiated 24 hours post gemcitabine and endured for 3 days as indicated. Tumor size and animal body weight were measured over the course of the study on the days indicated with data points in Figure 9. Tumor volume was calculated using the formula: volume = (width^2 X length)/2. No mortalities occurred over the course of this study.

[5] = test system: subcutaneous HT-29 xenografts; experiment: Tumor growth inhibition experiment with tolerability, CPT11 and Compound 1, simultaneous or 24 hour delay (Example 3); assay type: in vivo; conditions: single agent; CPT11 100 mg/kg IP single dose; Compound 1 50 mg/kg PO BID 3 consecutive days
Experimental: (§1) Female nude mice were inoculated subcutaneously with 5 X 10^6 HT-29 tumor cells in 1X PBS (100 µL). Twelve days later, mice were randomized into groups of 6 with an average tumor volume in each group of approximately 250 mm^3. […] Tumor size and animal body weight were measured over the course of the study on the days indicated with data points in Figure 5. Tumor volume was calculated using the formula volume = (width^2 X length)/2.

[6] = test system: subcutaneous HT-29 xenografts; experiment: Tumor growth inhibition experiment, CPT11 and Compound 2 (Example 11); assay type: in vivo, nude mice; conditions: in combination with CPT-11; Compound 2 10 or 25 mg/kg PO BID
Experimental: as §1, with “µL). Fourteen” for “µL). Twelve”, “of 8” for “of 6”, “approximately 260” for “approximately 250”, “Figure 12.” for “Figure 5.”, “the formula: volume=” for “the formula volume =”, “(width^2 x” for “(width^2 X”

[7] = Tolerability of CPT11 and Compound 2 with 12, 24 or 48 hour delay in naive mice (Example 4); assay type: in vivo; conditions: single agent; CPT11 100 mg/kg IP Q10Dx2; Compound 2 25 mg/kg PO BID 3 days per cycle
[8] = Compound 2 exposure in HT-29 tumor bearing mice after CPT11 (Example 6); assay type: in vivo, nude mice; conditions: Compound 2 25 mg/kg PO, from 24 hours after CPT11 100 mg/kg; single dose vs 3 consecutive days BID; t-test > 0.05
[9] = test system: subcutaneous HT-29 xenografts; assay type: in vivo; conditions: single agent; CPT11 100 mg/kg IP Q10Dx2; Compound 2 25 mg/kg PO BID
Experimental: as §1, with “in IX” for “in 1X”, “of 8” for “of 6”, “approximately 215” for “approximately 250”, “Figure 6.” for “Figure 5.”, “the formula:” for “the formula”

[10] = single agent, Compound 5 10 mg/kg PO BID 3 days

SMILES | Growth Delay [1] [days] | Maximum % Body Weight Loss [1] | Growth Delay [2, 10] [days] | % Tumor Growth Inhibition [3] | Growth Delay [3] [days] | Growth Delay [4] [days] | Maximum % Body Weight Loss [5] | % Mortality [7] [%] | Maximum % Body Weight Loss [7] | Growth Delay [9] [days] | further results
N[C@@H]1CCCN(c2c(Br)cnc3[nH]cc(NC(=O)C4CC4)c23)C1 [Compound 5, (R)-N-(4-(3-aminopiperidin-1-yl)-5-bromo-1H-pyrrolo[2,3-b]pyridin-3-yl)cyclopropanecarboxamide] | 7.7 | 2.5, Dav 18% | 5.7 | 25,5% | 6.1 |  |  |  |  |  | inhibition of CPT11 induced phospho-cdc2 (phospho-cdc2): dose-related inhibition; inhibition of tumor growth ([1]; in combination with CPT-11, Compound 5 5, 10 or 25 mg/kg PO BID): dose related inhibition of tumor growth; inhibition of tumor growth ([2]; in combination with gemcitabine, Compound 5 5, 10 or 25 mg/kg PO BID): dose related inhibition of tumor growth; % Regression [2, 10]: 31.6%; tumor growth ([3]; in combination with gemcitabine, MiaPaCa2 pancreatic carcinoma xenografts): inhibits tumor growth
Nc1ccn([C@@H]2O[C@H](CO)[C@@H](O)C2(F)F)c(=O)n1 [Gemcitabine, gemcitabine, reference compound] |  |  | 11.5 | 6.6% | 2.2 | 4.39 |  |  |  |  | 
N[C@@H]1CCCN(c2c(Br)cnc3[nH]cc(NC(=O)c4cccnc4)c23)C1 [Compound 1, (R)-N-(4-(3-aminopiperidin-1-yl)-5-bromo-1H-pyrrolo[2,3-b]pyridin-3-yl)nicotinamide] |  |  |  |  |  |  | 3.9, Day 13% |  |  |  | 
CC(C)C(=O)Nc1c[nH]c2ncc(Br)c(N3CCC[C@@H](N)C3)c12 [Compound 2, (R)-N-(4-(3-aminopiperidin-1-yl)-5-bromo-1H-pyrrolo[2,3-b]pyridin-3-yl)isobutyramide] |  |  |  |  |  | 4.78 |  | 0 | 0.3, Day 17% | 1.8 | inhibition of tumor growth [6]: dose related inhibition of tumor growth; exposure following a single dose or administration for 3 days [8]: not statistically_different; Maximum % Body Weight Loss [9]: 7.2, Dav 3%
CCc1c2c(nc3ccc(OC(=O)N4CCC(N5CCCCC5)CC4)cc13)-c1cc3c(c(=O)n1C2)COC(=O)[C@]3(O)CC [CPT11, irinotecan, reference compound] | 16.6 | 6.3, Day 18% |  |  |  |  | 3.9, Day 13% | 0 | 3.4. Day 14% | 16 | % Mortality [5]: 0%
